# From patent publication US7268149B2 (Wyeth, priority 2002, dated 2007)
# “And” between values parts separate entries of the source, which are not always exact repeats. Identical values can stand only once.
# What was measured:
# [1] = system: rat uterine decidualization; experiment: Rat decidualization assay; type: in vivo; settings: for EC50 for uterine wet weight (decidual response), individual studies: ovariectomized female Sprague-Dawley rats, once daily for seven days
# Method: b. Animals (RACUC Protocol #5002)
# The animals are treated once daily for seven days.
# Uteri are removed and trimmed of fat.
# Body weight: Mean total animal body weight (default-kg)
# Decidual response: [(D−C)/C]×100%
# [2] = system: eczema; experiment: Conditioning the skin of a human patient with severe eczema; type: in vivo; settings: about 50 mg daily
# Method: A human patient having a severe form of eczema is treated according to the present invention. Specifically, about 50 mg of 5-(4,4-dimethyl-2-thioxo-1,4-dihydro-2H-3,1-benzoxazin-6-yl)-1-methyl-1H-pyrrole-2-carbonitrile is delivered to the patient daily.
# [3] = target: T1, androgen receptor (AR) (Mus musculus, UniProt P19091); experiment: Androgen receptor agonistic/antagonistic activity, PRE-tk-luciferase reporter in L929 cells; type: cell-based
# T1 construct: L929 cells which express the AR but not the PR; endogenous in cells; host or cells: L929 cells infected with an adenovirus PRE-tk-luciferase reporter
# T1 sequence (P19091 1-899): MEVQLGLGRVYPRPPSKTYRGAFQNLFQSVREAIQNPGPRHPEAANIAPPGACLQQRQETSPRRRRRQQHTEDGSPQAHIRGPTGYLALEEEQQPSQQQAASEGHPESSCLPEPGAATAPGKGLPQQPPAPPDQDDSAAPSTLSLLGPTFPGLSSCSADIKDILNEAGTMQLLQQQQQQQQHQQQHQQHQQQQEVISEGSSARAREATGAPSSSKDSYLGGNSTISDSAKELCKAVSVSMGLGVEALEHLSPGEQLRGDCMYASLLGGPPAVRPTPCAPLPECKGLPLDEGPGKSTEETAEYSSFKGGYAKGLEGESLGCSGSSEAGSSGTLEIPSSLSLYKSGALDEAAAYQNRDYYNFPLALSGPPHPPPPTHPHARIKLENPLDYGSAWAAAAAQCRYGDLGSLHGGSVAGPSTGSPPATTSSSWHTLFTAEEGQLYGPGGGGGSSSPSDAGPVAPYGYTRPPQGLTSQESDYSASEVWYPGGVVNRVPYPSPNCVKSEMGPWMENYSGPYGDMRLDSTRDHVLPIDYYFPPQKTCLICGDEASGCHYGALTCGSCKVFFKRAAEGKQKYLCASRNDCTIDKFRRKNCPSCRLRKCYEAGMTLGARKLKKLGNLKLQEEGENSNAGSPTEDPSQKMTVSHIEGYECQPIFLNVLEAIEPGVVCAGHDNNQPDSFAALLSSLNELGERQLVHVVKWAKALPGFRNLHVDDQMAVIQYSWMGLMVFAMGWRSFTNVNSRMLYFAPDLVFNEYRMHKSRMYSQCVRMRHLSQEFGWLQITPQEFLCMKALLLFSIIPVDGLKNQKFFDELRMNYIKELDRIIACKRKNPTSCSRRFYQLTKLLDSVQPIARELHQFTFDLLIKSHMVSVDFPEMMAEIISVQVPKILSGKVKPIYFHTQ
# Method: The androgen receptor (AR) agonistic and antagonistic activity of the compositions of the invention in the L929 cells which express the AR but not the PR was evaluated as described in Zhang et al., Steroids, 65(10-11): 637-643 (October-November 2000).
# Cells were plated in 96-well plates at 25,000 cells/well in DMEM (BioWhittaker) with 10% (v/v) fetal bovine serum (FBS). The next day, cells were infected with the adenovirus PRE-tk-luciferase reporter construct (2×10^9 pfu/ml particles) and kept in DMEM containing 10% charcoal stripped FBS for an additional 24 hours. […] To test the anti-androgenic activity, cells were co-treated with 3 nM DHT. Luciferase activity was measured 24 hours following the treatment.
# [4] = system: acne vulgaris; experiment: Treatment of acne vulgaris in a human patient; type: in vivo; settings: oral tablet about 20 mg daily
# Method: A human patient having acne vulgaris is treated according to the present invention. Specifically, 5-(4,4-dimethyl-2-thioxo-1,4-dihydro-2H-3,1-benzoxazin-6-yl)-1-methyl-1H-pyrrole-2-carbonitrile is orally delivered to the patient daily. Delivery is in the form of a tablet formulated to contain about 20 mg of 5-(4,4-dimethyl-2-thioxo-1,4-dihydro-2H-3,1-benzoxazin-6-yl)-1-methyl-1H-pyrrole-2-carbonitrile.
# [5] = system: alkaline phosphatase activity in T47D cells; experiment: T47D cell alkaline phosphatase assay; type: cell-based; settings: Homo sapiens, agonist mode, read-out: EC50 in the T47D alkaline phosphatase assay, test compounds
# Method: 4. T47D Cell Alkaline Phosphatase Assay
# The purpose of this assay is to identify progestins or antiprogestins by determining a compound's effect on alkaline phosphatase activity in T47D cells.
# a. Culture Medium: DMEM:F12 (1:1) (GIBCO, BRL) supplemented with 5% (v/v) charcoal stripped fetal bovine serum (not heat-inactivated), 100 U/ml penicillin, 100 μg/ml streptomycin, and 2 mM GlutaMax (GIBCO, BRL).
# b. Alkaline Phosphatase Assay Buffer:
# I. 0.1 M Tris-HCl, pH 9.8, containing 0.2% Triton X-100
# II. 0.1 M Tris-HCl, pH 9.8 containing 4 mM p-nitrophenyl phosphate (Sigma).
# c. Cell Culture and Treatment:
# Frozen T47D cells were thawed in a 37° C. water bath and diluted to 280,000 cells/ml in culture medium. To each well in a 96-well plate (Falcon, Becton Dickinson Labware), 180 μl of diluted cell suspension was added. Twenty μl of reference or test compounds diluted in the culture medium was then added to each well. […] The cells were incubated at 37° C. in a 5% CO2/humidified atmosphere for 24 hr.
# d. Alkaline Phosphatase Enzyme Assay:
# At the end of treatment, the medium was removed from the plate and […] of assay buffer I was added to each well. The plates were shaken in a titer plate shaker for 15 min. Then 150 μl of assay buffer II was added to each well.
# e. Analysis of Results: Analysis of Dose-response Data
# For reference and test compounds, a dose response curve is generated for dose (X-axis) vs. the rate of enzyme reaction (slope) (Y-axis). Square root-transformed data are used for analysis of variance and nonlinear dose response curve fitting for both agonist and antagonist modes. Huber weighting is used to downweight the effects of outliers. EC50 or IC50 values are calculated from the retransformed values.
# [6] = system: T47D cells; experiment: T47D cell proliferation assay (BrdU incorporation); type: cell-based
# Method: 3. T47D cell Proliferation Assay
# The objective of this assay is the determination of progestational and antiprogestational potency by using a cell proliferation assay in T47D cells. A compound's effect on DNA synthesis in T47D cells is measured.
# a. Growth Medium: DMEM:F12 (1:1) (GIBCO, BRL) supplemented with 10% (v/v) fetal bovine serum (not heat-inactivated), 100 U/ml penicillin, […], and 2 mM GlutaMax (GIBCO, BRL).
# b. Treatment Medium: Minimum Essential Medium (MEM) (#51200-038GIBCO, BRL) phenol red-free supplemented with 0.5% charcoal stripped fetal bovine serum, 100 U/ml penicillin, […] streptomycin, and 2 mM GlutaMax (GIBCO, BRL).
# Stock T47 D cells are maintained in growth medium. […]
# At the end of BrdU labeling, the medium is removed and BrdU incorporation is measured using a cell proliferation ELISA kit (#RPN 250, Amersham Life Science) according to manufacturer's instructions. […] Then 25 μl of 1 M sulfuric acid is added to each well to stop color reaction and optical density is read in a plate reader at 450 nm within 5 min.
# Square root-transformed data are used for analysis of variance and nonlinear dose response curve fitting for both agonist and antagonist modes. […] EC50 or IC50 values are calculated from the retransformed values. […]
Compound,EC50 [5] [nM],"EC50 for uterine wet weight (decidual response), individual studies ([1]; s.c.)",other results
C#C[C@]1(O)CC[C@H]2[C@@H]3CCC4=CC(=O)CC[C@@H]4[C@H]3C(=C)C[C@@]21CC [3-Ketodesogestrel],,"0.10 mg/kg, s.c. and 0.06 mg/kg, s.c. and 0.11 mg/kg, s.c.","Estimated average EC50 for uterine weight (decidual response) ([1]; average of dose-response curves, ovariectomized rats, s.c.): 0.10 mg/kg, s.c."
"Cn1c(C#N)ccc1-c1ccc2c(c1)C(C)(C)OC(=S)N2 [5-(4,4-dimethyl-2-thioxo-1,4-dihydro-2H-3,1-benzoxazin-6-yl)-1-methyl-1H-pyrrole-2-carbonitrile]",,,"Eczema outcome ([2]; after about 12 weeks): improvement in the eczema is observed; Dryness of the skin ([2]; thirty days after the treatment): a decrease in the dryness affected to the skin is noticed; AR agonistic activity ([3]; at the maximum concentration tested (10 nM)): only marginal agonistic activity; AR antagonistic activity ([3]; nine point dose response, co-treated with 3 nM DHT): significant antagonistic activity; Acne vulgaris outcome ([4]; after about 24 weeks): improvement in the acne vulgaris is observed; Presence of lesions caused by acne vulgaris ([4]; forty-five to sixty days after the treatment): a decrease in the presence of lesions caused by acne vulgaris is noticed"
"Cn1c(C#N)ccc1-c1ccc2c(c1)C1(CCCCC1)OC(=S)N2 [Example 4, 1-Methyl-5-(2-thioxo-1,2-dihydrospiro[3,1-benzoxazine-4,1′-cyclohexan]-6-yl)-1H-pyrrole-2-carbonitrile]",0.3,,
"Cn1c(C#N)ccc1-c1ccc2c(c1)C1(CCCC1)OC(=S)N2 [Example 5, 1-Methyl-5-(2-thioxo-1,2-dihydrospiro [3,1-benzoxazine-4,1′-cyclopentan]-6-yl)-1H-pyrrole-2-carbonitrile]",0.5,,
"Cn1c(C#N)ccc1-c1ccc2c(c1)C(C(F)(F)F)(C(F)(F)F)OC(=S)N2 [Example 6, 1-Methyl-5-[2-thioxo-4,4-bis(trifluoromethyl)-1,4-dihydro-2H-3,1-benzoxazin-6-yl]-1H-pyrrole-2-carbonitrile]",< 10,,
C#C[C@]1(O)CC[C@H]2[C@@H]3CCC4=CC(=O)CC[C@@H]4[C@H]3CC[C@@]21CC [Levonorgestrel],,"0.08 mg/kg, s.c. and 0.12 mg/kg, s.c. and 0.09 mg/kg, s.c. (2×)",
"CC(=O)O[C@]1(C(C)=O)CC[C@H]2[C@@H]3C[C@H](C)C4=CC(=O)CC[C@]4(C)[C@H]3CC[C@@]21C [MPA, medroxyprogesterone acetate]",,"0.42 mg/kg, s.c. and 0.39 mg/kg, s.c. (2×)",
CC(=O)[C@H]1CC[C@H]2[C@@H]3CCC4=CC(=O)CC[C@]4(C)[C@H]3CC[C@]12C [Progesterone],,"5.50 mg/kg, s.c.",
CC#C[C@]1(O)CC[C@H]2[C@@H]3CCC4=CC(=O)CCC4=C3[C@@H](c3ccc(N(C)C)cc3)C[C@@]21C [RU486],,,"IC50 for uterine weight (decrease in EC50 progesterone induced decidual response) ([1]; ovariectomized rats, p.o., with EC50 dose of progesterone): 0.21 mg/kg, p.o. and 0.14 mg/kg, p.o.; IC50 ([6]; read-out: IC50 (half-maximal decrease in trimegestone induced BrdU incorporation), antagonist mode, in the presence of 0.03 nM trimegestone): 0.016 nM and 0.018 nM"
C[C@H](O)C(=O)[C@@]1(C)CC[C@H]2[C@@H]3CCC4=CC(=O)CCC4=C3CC[C@@]21C [Trimegestone],,,"EC50 ([6]; agonist mode, individual studies, read-out: EC50 (half-maximal increase in BrdU incorporation)): 0.017 nM and 0.014 nM and 0.019 nM"

# More lines, main results first:
EC50 [5] [nM],Compound,"EC50 for uterine wet weight (decidual response), individual studies ([1]; s.c.)",other results
0.5,"Cn1c(C#N)ccc1-c1ccc2c(c1)C1(CCC1)OC(=S)N2 [Example 1, 1-Methyl-5-(2-thioxo-1,2-dihydrospiro[3,1-benzoxazine-4,1′-cyclobutan]-6-yl)-1H-pyrrole-2-carbonitrile]",,
0.1,"CCC1(CC)OC(=S)Nc2ccc(-c3ccc(C#N)n3C)cc21 [Example 2, 5-(4,4-Diethyl-2-thioxo-1,4-dihydro-2H-3,1-benzoxazin-6-yl)-1-methyl-1H-pyrrole-2-carbonitrile]",,
0.1,"CCC1(C)OC(=S)Nc2ccc(-c3ccc(C#N)n3C)cc21 (centres unmarked) [Example 3, 5-(4-ethyl-4-methyl-2-thioxo-1,4-dihydro-2H-3,1-benzoxazin-6-yl)-1-methyl-1H-pyrrole-2-carbonitrile]",,
